# Values quoted from earlier work in patent publication US12590059B2, “Process for the production of levetiracetam” (Suzhou BrightHope Pharmatech Co., Ltd, priority 2023, dated 2026).
# Settings: stated as known
smiles,measurement,value
CC[C@@H](C(N)=O)N1CCCC1=O [Levetiracetam],solubility in water,about 100 g/100 mL water
